Assay results reported in article PMC11357397, “Design, Synthesis, and Evaluation of Oleyl-WRH Peptides for siRNA Delivery” (Pharmaceuticals, 2024).

Key:
Experiment in all cases: In vitro cytotoxicity of peptide/siRNA complexes (MTS)
Details in all cases: 35% v/v DMSO
MCF-7 cells = format: cell-based
Protocol: (§1) This study aimed to assess these complexes’ potential as a delivery system for siRNA-mediated gene silencing in cancer cells. Our initial experiments involved the use of the MDA-MB-231 (Figure 6A), MCF-7 (Figure 6B), SK-OV-3 (Figure 7A), and HEK-293 (Figure 7B) cell lines for cell culture and in vitro cytotoxicity studies. After 72 h of incubation, we used an MTS test to determine the cytotoxicity of the developed peptides complexed with scrambled siRNA. The peptide/siRNA complexes were applied to the cells at various concentrations and N/P ratios (from 10 to 100). […] This finding corroborates the results from our previous reports.
(§2) The cell lines selected for this study included MDA-MB-231 (ATCC No. HTB-26, triple-negative breast cancer cell line), MCF-7 (ATCC No. HTB-22, breast adenocarcinoma cells), HEK-293 (ATCC No. CRL-1573, normal kidney cells), and SK-OV-3 (ATCC No. HTB-77, human epithelial ovary adenocarcinoma cells). […]
(§3) The cytotoxicity of the synthesized oleyl-conjugated peptides complexed with scrambled siRNA was evaluated in vitro using the aforementioned cell lines. […]
(§4) For the assay, 10,000 cells per 0.1 mL were seeded into each well of a 96-well plate using a multichannel pipette and allowed to adhere for 24 h in a standard cell culture incubator. Cell health and confluency were assessed after the initial 24 h period. […]

MDA-MB-231 cells = format: cell-based
Protocol: as §1, §2, §3, §4

SK-OV-3 cells = format: cell-based, human
Protocol: as §1, §2, §3, §4

HEK-293 cells = format: cell-based
Protocol: as §1
The cell lines selected for this study included MDA-MB-231 (ATCC No. HTB-26, triple-negative breast cancer cell line), MCF-7 (ATCC No. HTB-22, breast adenocarcinoma cells), HEK-293 (ATCC No. CRL-1573, normal kidney cells), and SK-OV-3 (ATCC No. HTB-77, human epithelial ovary adenocarcinoma cells).
as §3, §4

Measured: cells to which the positive control was cytotoxic

C[S+](C)[O-] [DMSO]
over 70%: all assays above
